The values below come from patent publication US20230399341A1, “7-PHENYL SUBSTITUTED 2-AMINOQUINAZOLINE INHIBITORS OF HPK1” (MERCK SHARP & DOHME LLC, priority 2020, published 2023).

In the assay the target is T1, Human HPK1, catalytic domain (Homo sapiens, UniProt Q92918).
T1 sequence (Q92918 1-346): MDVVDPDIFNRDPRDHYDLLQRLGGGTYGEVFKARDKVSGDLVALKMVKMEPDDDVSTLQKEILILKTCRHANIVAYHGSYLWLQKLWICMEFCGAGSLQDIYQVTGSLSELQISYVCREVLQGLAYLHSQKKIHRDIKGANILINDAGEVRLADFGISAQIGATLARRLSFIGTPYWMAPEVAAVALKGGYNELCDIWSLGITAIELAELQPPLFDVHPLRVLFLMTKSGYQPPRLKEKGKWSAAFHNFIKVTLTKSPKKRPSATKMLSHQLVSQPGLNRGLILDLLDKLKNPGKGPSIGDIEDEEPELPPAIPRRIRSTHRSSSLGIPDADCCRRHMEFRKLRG
As to the kind of experiment: HPK1-SLP76 TR-FRET Assay. Type of assay: biochemical. The settings on record: 75 pM HPK1, ATP 10 uM, SLP76 10 nM, 30 min pre-incubation, 60 min reaction.

SMILES strings stand for the structures. pIC50: −log10 of the molar value.

Compound `COc1cc2c(cc1Nc1ncc3ccc(-n4nc(C)nc4C4CCCN4)cc3n1)CN(C)CC2` (racemic) [Compound 3-19, (S and R)-N-(6-methoxy-2-meth-yl-1,2,3,4-tetrahydroisoquinolin-7-yl)-7-[3-methyl-5-(pyrrolidin-2-yl)-1H-1,2,4-triazol-1-yl]quin-azolin-2-amine] gave a pIC50 of 6.20.
The compound `COc1cc2c(cc1Nc1ncc3ccc(-c4ccc(NC(C)=O)nc4)cc3n1)CNCC2` [Compound 1-30, N-(5-{2-[(6-methoxy-1,2,3,4-tetahydroisoquinolin-7-yl)amino]quinazolin-7-yl}pyridin-2-yl)acetamide] had a pIC50 of 7.34.
As for `COc1cc2c(cc1Nc1ncc3ccc(-c4c[nH]nc4C)cc3n1)CN(C)CC2` [Compound 1-105, N-(6-methoxy-2-methyl-1,2,3,4-tetrahydroisoquinolin-7-yl)-7-(3-methyl-1H-pyrazol-4-yl)quinazolin-2-amine], the pIC50 is 6.71.
As for `Cc1c(-c2ccc3cnc(Nc4ccc(CS(=O)(=O)C(C)C)cc4)nc3c2)cnc2c1NCCO2` [Compound 1-129, N-(4-((isopropylsulfonyl)methyl)phenyl)-7-(8-methyl-2,3-dihydro-1H-pyrido[2,3-b][1,4]oxazin-7-yl)quinazolin-2-amine], the figure is 10.04; as for `COc1cc2c(cc1Nc1ncc3ccc(-c4cccc(-c5cn[nH]c5)c4)cc3n1)CNCC2` [Compound 1-56, N-(6-methoxy-1,2,3,4-tetrahydroisoquinolin-7-yl)-7-[3-(1H-pyrazol-4-yl)phenyl]quinazolin-2-amine], 6.69; as for `COc1cc2c(cc1Nc1ncc3c(N)c(F)c(-c4cnc5c(c4C)NCCO5)cc3n1)CN(C)CC2(C)C` [Compound 2-75, 6-fluoro-N~2~-(6-methoxy-2,4,4-trimethyl-1,2,3,4-tetrahydroisoquinolin-7-yl)-7-(8-methyl-2,3-dihydro-1H-pyrido[2,3-b][1,4]oxazin-7-yl)quinazoline-2,5-diamine], 9.49.
For the compound `COc1ccc(CC#N)cc1Nc1ncc2c(N)c(F)c(-c3cnc4c(c3C)NCCO4)cc2n1` [Compound 2-5, (3-{[5-amino-6-fluoro-7-(8-methyl-2,3-dihydro-1H-pyrido[2,3-b][1,4]oxazin-7-yl)quinazolin-2-yl]amino}-4-methoxyphenyl)acetonitrile], the pIC50 is 6.57.
In the case of `Cc1c(-c2cc3nc(Nc4cccc(S(=O)(=O)NC(C)(C)C)c4)ncc3c(N)c2F)cnc2c1NCCO2` [Compound 2-33, 3-{[5-amino-6-fluoro-7-(8-methyl-2,3-dihydro-1H-pyrido[2,3-b][1,4]oxazin-7-yl)quinazolin-2-yl]amino}-N-tert-butylbenzene-1-sulfonamide] it was 9.73; in that of `COc1cc2c(cc1Nc1ncc3ccc(-c4cnc5cccnc5c4)cc3n1)CN(C)CC2` [Compound 1-25, N-(6-methoxy-2-methyl-1,2,3,4-tetrahydroisoquinolin-7-yl)-7-(,15-naphthyridin-3-yl)quinazolin-2-amine], 7.70; in that of `CNC(=O)C1(c2ccc(Nc3ncc4cc(F)c(-c5cnc6c(c5C)NCCO6)cc4n3)cc2)CCCC1` [Compound 1-120, 1-(4-{[6-fluoro-7-(8-methyl-2,3-dihydro-1H-pyrido[2,3-b][1,4]oxazin-7-yl)quinazolin-2-yl]amino}phenyl)-N-methylcyclopentane-1-carboxamide], 9.23.
The compound `COc1cc2c(cc1Nc1ncc3ccc(-c4cnc5c(C#N)cnn5c4)cc3n1)CN(C)CC2` [Compound 1-22, 6-{2-[(6-methoxy-2-methyl-1,2,3,4-tetrahydroisoquinolin-7-yl)amino]quinazolin-7-yl}pyrazolo[1,5-a]pyrimidine-3-carbonitrile] had a pIC50 of 6.13.
In the case of `COc1cc2c(cc1Nc1ncc3ccc(NCC4CC(=O)N(C)C4)cc3n1)CN(C)CC2` (stereo in doubt) [Compound 3-48, (4S)-4-[({2-[(6-methoxy-2-meth-yl-1,2,3,4-tetrahydroisoquinolin-7-yl)amino]quinazolin-7-yl}-amino)methyl]-1-methylpyrrol-idin-2-one], the pIC50 was 6.28.
In the case of `Cc1c(-c2c(F)c(N)c3cnc(Nc4ccc5c(c4)CN(C)CC54CC4)nc3c2Cl)cnc2c1NCCO2` (single isomer, unassigned) [Compound 2-108, (+ or −)-8-chloro-6-fluoro-N2-(2′-methyl-2′,3′-dihydro-1′H-spiro[cyclopropane-1,4′-isoquinolin]-7′-yl)-7-(8-methyl-2,3-dihydro-1H-pyrido[2,3-b][1,4]oxazin-7-yl)quinazoline-2,5-diamine] it was 10.87; in that of `COc1cc2c(cc1Nc1ncc3ccc(OCc4ccc5c(c4)CNC5)cc3n1)CN(C)CC2` [Compound 4-2, 7-[(2,3-dihydro-1H-iso-indol-5-yl)methoxy]-N-(6-methoxy-2-methyl-1,2,3,4-tetrahydroisoquinolin-7-yl)-quinazolin-2-amine], 8.33; in that of `COc1cc2c(cc1Nc1ncc3ccc(Nc4ccc5c(c4)C(=O)N(C)C5)cc3n1)CN(C)CC2` [Compound 3-23, 6-({2-[(6-methoxy-2-methyl-1,2,3,4-tetrahydroisoquinolin-7-yl)amino]quinazolin-7-yl}-amino)-2-methyl-2,3-dihydro-1H-isoindol-1-one], 7.33.
`Cc1c(-c2cc3nc(Nc4ccc(CS(C)(=O)=O)cc4)ncc3cc2F)cnc2c1NCCO2` [Compound 1-115, 6-fluoro-7-(8-methyl-2,3-dihydro-1H-pyrido[2,3-b][1,4]oxazin-7-yl)-N-(4-[(methylsulfonyl)methyl]phe-nyl}quinazolin-2-amine] gave a negative-log IC50 (pIC50) of 10.29.
As for `Cc1c(-c2cc3nc(Nc4ccc(C(C)S(C)(=O)=O)cc4)ncc3cc2F)cnc2c1NCCO2` (single isomer, unassigned) [Compound 1-124, (R or S)-6-fluoro-7-(8-methyl-2,3-dihydro-1H-pyrido[2,3-b][1,4]oxazin-7-yl)-N-{4-[1-(methylsulfonyl)ethyl]phenyl} quinazolin-2-amine], the figure is 10.39; as for `COc1cc2c(cc1Nc1ncc3ccc(Nc4cccc(N5CCN(C)C5=O)c4)cc3n1)CN(C)CC2` [Compound 3-43, 1-[3-({2-[(6-methoxy-2-methyl-1,2,3,4-tetrahydroisoquinolin-7-yl)amino]quinazolin-7-yl}-amino)phenyl]-3-methylimidaz-olidin-2-one], 7.16.
For `Cc1c(-c2c(F)c(N)c3cnc(Nc4ccc(CS(C)(=O)=O)cc4F)nc3c2Cl)cnc2c1NCCO2` [Compound 2-135, 8-chloro-6-fluoro-N2-(2-fluoro-4-((methylsulfonyl)methyl)phenyl)-7-(8-methyl-2,3-dihydro-1H-pyrido[2,3-b][1,4]oxazin-7-yl)quinazoline-2,5-diamine], the pIC50 is 7.14.
`COc1cc2c(cc1Nc1ncc3ccc(-c4cncc(N5CCN(C)CC5)c4)cc3n1)CNCC2` [Compound 1-54, N-(6-methoxy-1,2,3,4-tetrahydroisoquinolin-7-yl)-7-[5-(4-methylpiperazin-1-yl)pyridin-3-yl]quinazolin-2-amine] gave a pIC50 of 7.72.
As for `COc1cc2c(cc1Nc1ncc3ccc(N4CC(C)(CO)OC4=O)cc3n1)CN(C)CC2` (racemic) [Compound 3-7, (S and R)-5-(hydroxymethyl)-3-{2-[(6-methoxy-2-methyl-1,2,3,4-tetrahydroisoquinolin-7-yl)amino]quinazolin-7-yl}-5-methyl-1,3-oxazolidin-2-one], the figure is 7.34.
Turning to `Cc1c(-c2c(F)c(N)c3cnc(Nc4ccc(CS(C)(=O)=O)cc4)nc3c2Cl)cnc2c1NCCO2` [Compound 2-91, (+ or −)-8-chloro-6-fluoro-7-(8-methyl-2,3-dihydro-1H-pyrido[2,3-b][1,4]oxazin-7-yl)-N~2~- {4-[(methylsulfonyl)methyl]phenyl}quinazoline-2,5-diamine], the pIC50 was 8.88.
As for `Cc1c(-c2cc3nc(Nc4ccc(C(C)S(C)(=O)=O)cc4)ncc3c(N)c2F)cnc2c1NCCO2` (single isomer, unassigned) [Compound 2-63, (R or S)-6-fluoro-7-(8-methyl-2,3-dihydro-1H-pyrido[2,3-b][1,4]oxazin-7-yl)-N˜2˜-{4-[1-(methylsulfonyl)ethyl]phenyl}quinazoline-2,5-diamine], the figure is 10.06; as for `Cc1ccc(C#N)cc1-c1cc2nc(Nc3ccc(S(C)(=O)=O)cc3)ncc2c(N)c1F` [Compound 2-52, 3-(5-amino-6-fluoro-2-{[4-(methylsulfonyl)phenyl]amino}quinazolin-7-yl)-4-methylbenzonitrile], 6.37.
In the case of `COc1cc2c(cc1Nc1ncc3ccc(-c4cc(S(=O)(=O)N(C)C)ccc4C)cc3n1)CNCC2` [Compound 1-79, 3-{2-[(6-methoxy-1,2,3,4-tetrahydroisoquinolin-7-yl)amino]quinazolin-7-yl}-N,N,4-trimethylbenzene-1-sulfonamide] it was 6.83.
In the case of `Cc1c(-c2cc3nc(Nc4ccc5c(c4)CCS5(=O)=O)ncc3c(N)c2F)cnc2c1NCCO2` [Compound 2-43, 5-{[5-amino-6-fluoro-7-(8-methyl-2,3-dihydro-1H-pyrido[2,3-b][1,4]oxazin-7-yl)quinazolin-2-yl]amino}-2,3-dihydro-1H-1-benzothiophene-1,1-dione], the pIC50 was 10.07.
In turn, `Cc1c(-c2cc3nc(Nc4ccc5c(c4)CN(C(C)C)CC5)ncc3c(N)c2F)cnc2c1NCC(C)O2` (single isomer, unassigned) [Compound 2-145, 7-(3,8-dimethyl-2,3-dihydro-1H-pyrido[2,3-b][1,4]oxazin-7-yl)-6-fluoro-N2-(2-isopropyl-1,2,3,4-tetrahydroisoquinolin-7-yl)quinazoline-2,5-diamine] showed a pIC50 of 10.29.
